Experimental findings from EP4631940A1, “COMPOUND TARGETING PAN-KRAS PROTEIN DEGRADATION AGENT AND USE THEREOF” (Betta Pharmaceuticals Co., Ltd., priority 2022, dated 2024) are described below.

Molecules are shown by their SMILES.

Series [1] deals with AGS. As to the kind of experiment: Cell proliferation experiment (CellTiter-Glo). The settings on record: Homo sapiens, AGS, 96 h, read-out: IC50(nM) AGS. Format: cell-based. In general terms: Cellular ATP, detected with luciferase, serves as a proxy for viable cell number.
Series [2] concerns SW620. As to the kind of experiment: Cell proliferation experiment (CellTiter-Glo). It counts as cell-based. The note with it: Homo sapiens, SW-620, 96 h, read-out: IC50(nM) SW620.
The test system of series [3] is H358. As to the kind of experiment: Cell proliferation experiment (CellTiter-Glo). Format: cell-based. The settings on record: Homo sapiens, NCI-H358; H358, KRAS mutation type G12C; 96 h incubation.
Series [4] can be described thus: PK study in ICR mice (whole blood). Format: in vivo. The settings on record: Female ICR mice, IV 1 mg/kg; for AUC(0-t) / half-life / C0: mouse; for C0: read-out: C0. As for the experimental part:
Example 8 PK Study of Compound in ICR Mice (whole blood)
The compound was mixed with the vehicle (10% DMSO / 5% Solutol HS 15 / 85% saline), vortexed, and sonicated to prepare a clear solution at 0.2 mg/mL. Female ICR mice aged 6 to 7 weeks (non-fasted) were intravenously administered the compound. Whole blood was collected at specified time points. Drug concentration was analyzed by LC-MS/MS, and pharmacokinetic parameters were calculated using Phoenix WinNonlin software (Pharsight Corporation, USA). Table 11 Mouse PK Data for Intravenous Compound Monotherapy

The target of series [5] is T1, KRAS G12D (Homo sapiens, UniProt P01116, G12D).
T1 sequence (P01116 1-188 isoform P01116-2 G12D): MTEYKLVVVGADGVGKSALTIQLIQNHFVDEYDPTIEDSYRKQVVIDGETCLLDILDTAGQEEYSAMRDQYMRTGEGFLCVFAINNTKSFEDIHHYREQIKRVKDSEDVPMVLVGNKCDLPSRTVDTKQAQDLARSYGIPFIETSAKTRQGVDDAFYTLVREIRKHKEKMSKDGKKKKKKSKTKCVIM
The nature of series [6]: in vitro. The note with it: human, microsomes.
Series [7] in a line: in vitro. The note with it: rat, microsomes.
Series [8] is described as follows: in vitro. The note with it: mouse, microsomes.
Series [9] can be described thus: in vitro. The settings on record: dog, microsomes.
The target of series [10] is T1, KRAS G12D. Briefly: cell-based. The note with it: AGS.
Series [11] has as its system PK59. Briefly: Cell proliferation experiment (CellTiter-Glo). It counts as cell-based. The settings on record: PK-59; PK59, KRAS mutation type G12D; 96 h incubation.

Consider `CCc1c(F)ccc2cc(O)cc(-c3ncc4c(N5CCC[C@@](C)(O)C5)nc(OCC5(CN6CCC(c7ccc(-c8cn([C@H](C(=O)N9C[C@H](O)C[C@H]9C(=O)N[C@@H](C)c9ccc(-c%10scnc%10C)cc9)C(C)C)nn8)cc7)CC6)CC5)nc4c3F)c12` [Compound 133], for which the figures for the IC50 in series [1], in [2] and in series [3] were 13 nM, 74 nM and 48 nM, respectively. Besides, in series [4], the “Cl_obs” value turned out to be 14.2 mL/min/kg. Also, in series [4], the “Vss_obs” value was found to be 2.49 L/kg. In addition, in [4], the AUC(0-t) stood at 1200 ng·h/mL. In series [4], the half-life is 5.77 h. Also, in [4], the C0 worked out at 2840 ng/mL. In series [5], this compound yielded a DC50 of 17 nM. In addition, the microsomal CLint came to 7.4 µL/min/mg in series [6], 7.2 µL/min/mg in series [7], 8 µL/min/mg in series [8] and 9.3 µL/min/mg in [9]. Besides, the Dmax in [10] was 95%.
On to `CCc1c(F)ccc2cc(O)cc(-c3ncc4c(N5CCC[C@@](C)(O)C5)nc(OCC5(CN6CCN(C78CC(c9cn([C@H](C(=O)N%10C[C@H](O)C[C@H]%10C(=O)N[C@@H](C)c%10ccc(-c%11scnc%11C)cc%10)C(C)C)nn9)(C7)C8)CC6)CC5)nc4c3F)c12` [Compound 149, (2S,4R)-1-((S)-2-(4-(3-(4-((1-(((7-(8-ethyl-7-fluoro-3-hydroxynaphthalen-1-yl)-8-fluoro-4-((R)-3-hydroxy-3-methylpiperidin-1-yl)pyrido[4,3-d]pyrimidin-2-yl)oxy)methyl)cyclopropyl)methyl)piperazin-1-yl)bicyclic[1.1.1]pent-1-yl)-1H-1,2,3-triazol-1-yl)-3-methylbutanoyl)-4-hydroxy-N-( (S)-1-(4-(4-methylthiazol-5-yl)phenyl)ethyl)pyrrolidine-2-carboxamide], for which the IC50 in [1] worked out at 15 nM; in series [11], 57 nM. For the same compound, the DC50 in series [5] worked out at 7.6 nM. The compound also returned a Dmax in [10] of 95%.
Take `CCc1c(F)ccc2cc(O)cc(-c3ncc4c(N5CCC[C@@](C)(O)C5)nc(OCC5(CN6CCC(Oc7ccc(-c8cn([C@H](C(=O)N9C[C@H](O)C[C@H]9C(=O)N[C@@H](C)c9ccc(-c%10scnc%10C)cc9)C(C)C)nn8)nc7)CC6)CC5)nc4c3F)c12` [Compound 117]: the figures for the IC50 in series [1], in series [11] and in series [2] were 13 nM, 18.5 nM and 47 nM, respectively. This compound came in with a DC50 in [5] of 7.5 nM. In addition, the microsomal CLint came out at 8.8 µL/min/mg in [6], 11.3 µL/min/mg in series [7], 10.1 µL/min/mg in series [8] and 6.6 µL/min/mg in series [9]. The Dmax in series [10] was found to be 95%.
On to `CCc1c(F)ccc2cc(O)cc(-c3ncc4c(N5CCC[C@@](C)(O)C5)nc(OCC5(CN6CCC(Oc7ccc(-c8cn([C@H](C(=O)N9C[C@H](O)C[C@H]9C(=O)N[C@@H](CO)c9ccc(-c%10ccnn%10CC)cc9)C(C)C)nn8)cn7)CC6)CC5)nc4c3F)c12` [Compound 160], for which the IC50 in series [1] worked out at 14 nM; in [11], 19.5 nM; in series [2] it was 88 nM; in [3], 17 nM. Further, in series [5], the DC50 came to 2 nM. The Dmax in [10] came out at 95%.
On to `CCc1c(F)ccc2cc(O)cc(-c3ncc4c(N5CCC[C@@](C)(O)C5)nc(OC[C@]56CCCN5[C@@H](COC(=O)N5CCC7(CC5)CC(C(=O)N[C@H](C(=O)N5C[C@H](O)C[C@H]5C(=O)N[C@@H](C)c5ccc(-c8scnc8C)cc5)C(C)(C)C)C7)CC6)nc4c3F)c12` [Compound 88], for which the IC50 in series [1] stood at 33 nM; in [2] it was 199 nM; in series [3], 90 nM. For the same compound, the “Cl_obs” value in [4] is reported as 4.03 mL/min/kg. For the same compound, the “Vss_obs” value in series [4] turned out to be 0.780 L/kg. The compound also came in with an AUC(0-t) in series [4] of 4110 ng·h/mL. Further, the half-life in series [4] was 5.61 h. Also, the C0 in [4] worked out at 5000 ng/mL. For the same compound, the microsomal CLint in [6] was 13.4 µL/min/mg; in series [7] it was 10.1 µL/min/mg; in series [8], 24.5 µL/min/mg; in [9], 13.3 µL/min/mg.

For orientation: IC50 means the concentration at which inhibition is half-maximal. For orientation: AUC(0-t) means the area under the concentration-time curve up to a stated or last time point. Read a high AUC(0-t) as more exposure. One may read the half-life as how long it takes for the measured level to halve. A word on the microsomal CLint: it is the rate of metabolic loss divided by the concentration.
